Source: patent US8765688B2, “Anti-dandruff compositions containing peptides” (priority 2007, dated 2014)
Ends that are not written are not given here.

Assays:
[1] = tested on: Brevibacterium epidermidis; assay: Growth inhibition of Gram-positive bacteria by P18 (optical density at 620 nm); type: cell-based; conditions: for optical density at 620 nm: B. epidermidis suspension, 25 μM P18 solution, mean of 8 mixtures
Procedure: (§1) The growth inhibition by P18 was investigated on Gram-positive and Gram-negative bacteria. Shin et al. 1999 (loc.cit.) had already detected an inhibition on the model organisms Escherichia coli and Bacillus subtilis within a period up to 18 hours.
(§2) The growth medium used for this was LB medium as complex medium for the organisms Escherichia coli, Bacillus subtilis and Brevibacterium epidermidis. The medium comprised 10 g of trypton, 5 g of yeast extract and 10 g of NaCl per liter.
(§3) The growth test was carried out as follows: A shake flask with medium was inoculated with Escherichia coli, Bacillus subtilis or Brevibacterium epidermidis and incubated with shaking overnight at 30° C. and 200 rpm. A 96-well microtiter plate was filled with in each case 100 μl LB medium and inoculated with E.-coli, B.-subtilis or B. epidermidis suspensions of the overnight culture. The bacteria suspension was adjusted at the start of the experiment to an optical density, measured at 620 nm, of about 0.02. The concentrates of the P18 inhibitor solutions were 1 mM in water.
(§4) The growth of the following mixtures was compared by measuring the optical density:
(§5) bacteria suspension without the addition of an inhibitor;
(§6) bacteria suspension and addition of an aqueous P18 solution with a final concentration of 25 μM. The aqueous P18 solution had been freshly prepared.
(§7) The growth was observed over a period of 40 hours by measuring the optical density. […] The growth of Gram-positive bacteria was inhibited initially.

[2] = tested on: Bacillus subtilis; assay: as above; type: cell-based; conditions: for optical density at 620 nm: B. subtilis suspension, 25 μM P18 solution, mean of 8 mixtures
Procedure: as §1, §2, §3, §4, §5, §6, §7

[3] = tested on: Malassezia furfur; assay: Effect of P18 variants against M. furfur, CFU after 24 hours at 50 μM; type: cell-based
Procedure: The inhibitory effect of the following P18 variants against M. furfur was analyzed:
The experiments were carried out as follows:
Growth medium: M472-Pityrosporum medium according to DSMZ
The components were sterilized at 121° C., 1 bar superatmospheric pressure for 20 minutes.
2 g/L of olive oil (sterilized by filtration and, after autoclaving, added to the other components)
Since it was a two-phase medium, the complete medium was treated with sonication in order to enlarge the phase boundary.
For agar plates, if appropriate, 150 g/L of agar agar were added to the medium.
The growth test was carried out as follows: A shake flask with M472-Pityrosporum medium was inoculated with M. furfur and incubated with shaking overnight at 30° C. and 200 rpm.
A 96-well microtiter plate was filled with in each case 100 μl of M472-Pityrosporum medium and inoculated with M. furfur suspension of the overnight culture. The M. furfur suspension was adjusted at the start of the experiment to an optical density, measured at 600 nm, of 0.1. […]
After 24 hours, the colony-forming units (CFU were determined by plating out 10 μl from each of the suspensions and, after incubation for 6 days, counting the colonies. Two independent experiments with in each case three identical mixtures were carried out and the number of colony-forming units was averaged.

[4] = tested on: E. coli cells; assay: Biodegradability of P18: chymotrypsin digestion, then antimicrobial activity on E. coli cells; type: cell-based, Escherichia coli; conditions: for optical density at 620 nm in two independent experiments: aqueous P18 solution 10 μM, undigested, cell gives both experiments
Procedure: Firstly, the peptide P18 was digested by adding chymotrypsin (from bovine pancreas, Sigma). For this, a 1 mM P18 solution was prepared and treated in accordance with the manufacturer's instructions. The samples were incubated for 16 hours at 37° C. The negative control used was a sample of a P18 solution without addition of chymotrypsin or a control solution which comprised only chymotrypsin, but no P18. The antimicrobial activity of P18 on E. coli cells was then investigated. The test was carried out as described in Example 3.
as §4
(§8) E. coli suspension without the addition of an inhibitor.
E. coli suspension and addition of an aqueous P18 solution with a final concentration of 10 μM. The P18 solution had been stored beforehand for 16 hours at 37° C.
E. coli suspension and addition of an aqueous P18 solution with a final concentration of 10 μM. The P18 solution had been stored beforehand in accordance with the manufacturer's instructions for 16 hours at 37° C. and treated with chymotrypsin.
E. coli suspension and addition of an aqueous chymotrypsin solution which comprised, as control, the same amount of chymotrypsin as the P18 solution which was digested with chymotrypsin. This solution too had been stored beforehand for 16 hours at 37° C. This mixture was chosen in order to exclude an antimicrobial effect of the chymotrypsin.
The growth was observed over a period of 16 hours by measuring the optical density.

[5] = tested on: Escherichia coli; assay: Long-term stability of P18 (2 weeks at 37° C.), detected through inhibition of the growth of Escherichia coli; type: cell-based; conditions: for optical density at 620 nm: 25 μM
Procedure: The long-term stability of P18 was observed over a period of 2 weeks. For this, a 1 mM P18 solution in water was incubated at 37° C. over the entire period. At the start of the experiment and then on these two weeks, the antimicrobial activity was detected through inhibition of the growth of Escherichia coli. The growth medium used here was LB medium as complex medium. The medium comprised 10 g of trypton, 5 g of yeast extract and 10 g of NaCl per liter.
The growth test was carried out as follows: A shake flask of LB medium was inoculated with Escherichia coli and incubated overnight with shaking at 37° C. and 200 rpm. A 96-well microtiter plate was filled with in each case 100 μl of LB medium and inoculated with E. coli suspension of the overnight culture. The E. coli suspension was adjusted at the start of the experiment to an optical density, measured at 620 nm, of about 0.02. The concentrates of the P18 inhibitor solutions were 1 mM in water.
as §4, §8
E. coli suspension and addition of an aqueous P18 solution with a final concentration of 25 μM. The aqueous P18 solution had been freshly prepared.
E. coli suspension and addition of an aqueous P18 solution with a final concentration of 25 μM. The aqueous stock solution had been incubated for 2 weeks at 37° C.
The growth was observed over a period of 40 hours by measuring the optical density.

Substance: KWKLFKKIPKFLHLAKKF-NH2 [P18, KWKLFKKIPKFLHLAKKF-NH2]
- growth of B. epidermidis (in words) ([1]; 25 μM, within 40 hours): achieved growth densities comparable with the noninhibited culture
- optical density at 620 nm ([1]; incubation time 16 h): 0.29
- optical density at 620 nm ([1]; incubation time 24 h): 0.56
- optical density at 620 nm ([1]; incubation time 40 h): 1.24
- growth of B. subtilis (in words) ([2]; 25 μM, within 40 hours): achieved growth densities comparable with the noninhibited culture
- optical density at 620 nm ([2]; incubation time 16 h): 0.25
- optical density at 620 nm ([2]; incubation time 24 h): 0.96
- optical density at 620 nm ([2]; incubation time 40 h): 0.67
- Averaged number of colony-forming units (CFU) ([3]; 50 μM peptide in DMSO): 0
- inhibitory effect against M. furfur compared to DMSO ([3]; 50 μM, effectiveness increasing in the order P18AC-OH, P18-OH, P18): increased inhibitory effect against M. furfur as compared to DMSO
- optical density at 620 nm in two independent experiments ([4]; incubation time 0 h): 0-0
- optical density at 620 nm in two independent experiments ([4]; incubation time 16 h): 0.01-0.09
- biodegradability (protease digestion) ([4]; chymotrypsin, 16 hours at 37° C.): digestion of P18 with a serine protease, such as, for example, chymotrypsin, is possible
- antimicrobial activity after storage (long-term stability) ([5]; 1 mM solution in water, 2 weeks at 37° C.): unchanged
- optical density at 620 nm ([5]; fresh aqueous P18 solution, incubation time 0 h): 0.098
- optical density at 620 nm ([5]; fresh aqueous P18 solution, incubation time 16 h): 0
- optical density at 620 nm ([5]; fresh aqueous P18 solution, incubation time 24 h): 0
- optical density at 620 nm ([5]; fresh aqueous P18 solution, incubation time 40 h): 0
- optical density at 620 nm ([5]; stored aqueous P18 solution (2 weeks at 37° C.), incubation time 0 h): 0.081
- optical density at 620 nm ([5]; stored aqueous P18 solution (2 weeks at 37° C.), incubation time 16 h): 0
- optical density at 620 nm ([5]; stored aqueous P18 solution (2 weeks at 37° C.), incubation time 24 h): 0
- optical density at 620 nm ([5]; stored aqueous P18 solution (2 weeks at 37° C.), incubation time 40 h): 0
